According to patent US11986532B2 (Arvinas Operations, Inc., priority 2021, dated 2024):
Read-outs that look alike come from different tables or passages of the source.

Target: T1, BCL6 (Homo sapiens, UniProt P41182)
T1 construct: endogenous in cells; host or cells: T47D breast cancer epithelial cells
Experiment: Immunofluorescence protocol for high content imaging of BCL6 (degradation) in T47D cells, 3 days compound treatment
Assay type: cell-based
Conditions: for Dmax: read-out: Mean Dmax (%)** category; for DC50: read-out: Mean DC50 (nM)* category
Method: Immunofluorescence Protocol for High Content Imaging of BCL6
T47D cells were seeded in 100 μl volume of RPMI1640-10% FBS in a 96-well black/clear bottom plates for adherent lines (Corning #3904).
Day 1. T47D breast cancer epithelial cells were seeded at a density so that confluence is ˜70-90% at endpoint. Cells were seeded at 7K/0.1 ml/well the morning prior to the addition of exemplary bifunctional degradation compounds.
Day 2. Prepare an 11 point 3-fold serial dilution of exemplary bifunctional compound in DMSO and aliquot an appropriate volume to cell growth media to generate a 2× final concentration of exemplary bifunctional compound. Add an equal volume (0.1 ml) of 2× exemplary bifunctional compound/media mix to previously plated cells, for a final top concentration in aqueous cell growth media of 0.1 or 1 μM. Incubate for 3 days at 37° C., 5% CO2.
Day 5 Immunofluorescence. Discard cell media. Wash wells with 200 μl of room temperature phosphate-buffered saline (PBS). Prepared 4% paraformaldehyde (PFA) from 16% PFA (Electron Microscopy Sciences #15710) using 1×PBS. Fifty μl of 4% PF was added to each well and incubate for 15 minutes at room temperature to fix the cells. The PFA was aspirated and the cells washed twice with PBS (200 μl)).
Prepared 0.1% Triton X-100 in PBS using 10% triton X-100 stock. The cells were permeabilized by adding 100 ul of the 0.1% Triton X-100 in PBS to each well to permeabilize cells and incubating at room temperature for 15 minutes. Cells were washed twice with PBS.
Prepared 3% BSA/PBS (from Thermofisher #37515 Blocker BSA in TBS, 10%), and 100 ul was added to each well. The cells were incubated for at least 1 hour at room temperature.
Prepared 1% BSA/PBS using Blocker BSA/PBS, and the 3% BSA/PBS removed from the wells.
For no primary antibody controls, 50 μl 1% BSA/PBS was added.
Primary antibody (BCL6 Rb Ab, CST-14895, Cell Signaling) was diluted 1:300 in 1% BSA/PBS using Blocker BSA/PBS.
Fifty μl of primary antibody added to all remaining wells (i.e., all wells other than the primary antibody controls) and the cells were incubated overnight at 4° C. with slow orbital movement.
Day 6. Contents of the wells was removed and the cells washed four times with 200 ul PBS. 1% BSA/PBS was prepared using Blocker BSA in PBS.
Diluted secondary antibody goat anti-Rb IgG Alexa-488 1:1000, and cell mask-Alexa-647 1:3000 in 1% BSA/PBS in the same mix. Add 50 μl to each well and incubate at room temperature for 1 hour in the dark.
Cells were washed three times with 200 ul PBS, and then incubated for 10 minutes with 100 ul Hoechst dye at 1 μg/mL (20 mM stock) to stain cell nuclei. Wells were then washed with 200 μl PBS, and 100 ul of PBS was added to each well and the plate covered plate with a plastic opaque cover. Plates were stored at 4° C. and covered in aluminum foil until imaged.
Plates were equilibrated to room temperature prior to reading. The bottom of the plate was wiped with 70% isopropanol immediately prior to imaging.
10×, 4 fields/well, include Top hat smoothing in the analysis protocol.
16% paraformaldehyde: Electron Microscopy Sciences #15710
Hoechst: Thermofisher #62249
Blocker BSA in PBS, 10%: Thermofisher #37515
Blocker BSA in TBS, 10%: Thermofisher #37520
Goat anti-rabbit or mouse AlexaFluor-488: Thermofisher #A11008
Cell mask deep red AlexaFluor-647: Thermofisher #C10046
Wash buffer, PBS: 20×PBS, Thermofisher

[1] = T47D cells, 3 days compound treatment

DC50 [1] | Dmax [1] | Compound | Dmax (T47D) | DC50
 |  | CNC(=O)COc1cc2cc(Nc3nc(N4CCC(O[C@H]5C[C@H](N6CCN(c7ccc8c(c7Cl)CN([C@H]7CCC(=O)NC7=O)C8=O)[C@H](C)C6)C5)CC4)ncc3Cl)ccc2n(C(C)C)c1=O [Compound 267, 2-({6-[(5-chloro-2-{4-[(1r,3r)-3-[(3R)-4-{4-chloro-2-[(3S)-2,6-dioxopiperidin-3-yl]-1-oxo-3H-isoindol-5-yl}-3-methylpiperazin-1-yl]cyclobutoxy]piperidin-1-yl}pyrimidin-4-yl)amino]-1-isopropyl-2-oxoquinolin-3-yl}oxy)-N-methylacetamide] | 50 to 70% | < 10 nM
 |  | CNC(=O)COc1cc2cc(Nc3nc(N4CCC(O[C@H]5C[C@H](N6CCCN(c7ccc8c(c7C)C(=O)N(C7CCC(=O)NC7=O)C8=O)CC6)C5)CC4)ncc3Cl)ccc2n(C(C)C)c1=O (some centres unmarked) [Compound 417, 2-({6-[(5-chloro-2-{4-[(1r,3r)-3-{4-[2-(2,6-dioxopiperidin-3-yl)-4-methyl-1,3-dioxo-2,3-dihydro-1H-isoindol-5-yl]-1,4-diazepan-1-yl}cyclobutoxy]piperidin-1-yl}pyrimidin-4-yl)amino]-2-oxo-1-(propan-2-yl)-1,2-dihydroquinolin-3-yl}oxy)-N-methylacetamide] | ≥ 70% | < 10 nM
 |  | CNC(=O)COc1cc2cc(Nc3nc(N4CCC(O[C@H]5C[C@H](N6CCC(c7ccc8c(c7)C(=O)N(C7CCC(=O)NC7=O)C8=O)C6)C5)CC4)ncc3Cl)ccc2n(C(C)C)c1=O (some centres unmarked) [Compound 256, 2-({6-[(5-chloro-2-{4-[(1r,3r)-3-{3-[2-(2,6-dioxopiperidin-3-yl)-1,3-dioxo-2,3-dihydro-1H-isoindol-5-yl]pyrrolidin-1-yl}cyclobutoxy]piperidin-1-yl}pyrimidin-4-yl)amino]-2-oxo-1-(propan-2-yl)-1,2-dihydroquinolin-3-yl}oxy)-N-methylacetamide] | 50 to 70% | 10 to 50 nM
< 10 nM | < 50% | CNC(=O)COc1cc2cc(Nc3nc(N4CCC(OC5CCC6(CCN(c7ccc8c(c7)CN(C7CCC(=O)NC7=O)C8=O)C6)C5)CC4)ncc3Cl)ccc2n(C(C)C)c1=O (centres unmarked) [Compound 98, 2-{[6-({5-chloro-2-[4-({2-[2-(2,6-dioxopiperidin-3-yl)-1-oxo-2,3-dihydro-1H-isoindol-5-yl]-2-azaspiro[4.4]nonan-7-yl}oxy)piperidin-1-yl]pyrimidin-4-yl}amino)-2-oxo-1-(propan-2-yl)-1,2-dihydroquinolin-3-yl]oxy}-N-methylacetamide] |  | 
< 10 nM | 50 to 70% | CNC(=O)COc1cc2cc(Nc3nc(N4CCC(CN5CCC6(CCN(c7c(F)ccc8c7C(=O)N(C7CCC(=O)NC7=O)C8=O)C6)C5)CC4)ncc3Cl)ccc2n(C(C)C)c1=O (centres unmarked) [Compound 139, 2-{[6-({5-chloro-2-[4-({7-[2-(2,6-dioxopiperidin-3-yl)-5-fluoro-1,3-dioxo-2,3-dihydro-1H-isoindol-4-yl]-2,7-diazaspiro[4.4]nonan-2-yl}methyl)piperidin-1-yl]pyrimidin-4-yl}amino)-2-oxo-1-(propan-2-yl)-1,2-dihydroquinolin-3-yl]oxy}-N-methylacetamide] |  | 
< 10 nM | 50 to 70% | CNC(=O)COc1cc2cc(Nc3nc(N4CCC(OC5CCC6(CC5)CN(c5ccc7c(c5)C(=O)N(C5CCC(=O)NC5=O)C7)C6)CC4)ncc3Cl)ccc2n(C(C)C)c1=O (centres unmarked) [Compound 69, 2-{[6-({5-chloro-2-[4-({2-[2-(2,6-dioxopiperidin-3-yl)-3-oxo-2,3-dihydro-1H-isoindol-5-yl]-2-azaspiro[3.5]nonan-7-yl}oxy)piperidin-1-yl]pyrimidin-4-yl}amino)-2-oxo-1-(propan-2-yl)-1,2-dihydroquinolin-3-yl]oxy}-N-methylacetamide] |  | 
< 10 nM | 50 to 70% | CNC(=O)COc1cc2cc(Nc3nc(N4CCN(CC5CC6(CCN(c7ccc8c(c7)CN(C7CCC(=O)NC7=O)C8=O)CC6)C5)CC4)ncc3Cl)ccc2n(C(C)C)c1=O (centres unmarked) [Compound 6, 2-{[6-({5-chloro-2-[4-({7-[2-(2,6-dioxopiperidin-3-yl)-1-oxo-2,3-dihydro-1H-isoindol-5-yl]-7-azaspiro[3.5]nonan-2-yl}methyl)piperazin-1-yl]pyrimidin-4-yl}amino)-2-oxo-1-(propan-2-yl)-1,2-dihydroquinolin-3-yl]oxy}-N-methylacetamide] |  | 
 |  | CNC(=O)COc1cc2cc(Nc3nc(N4CCC(CN5CCC6(CC5)CN(c5ccc7c(c5OC)CN(C5CCC(=O)NC5=O)C7=O)C6(C)C)CC4)ncc3Cl)ccc2n(C(C)C)c1=O (centres unmarked) [Compound 340, 2-{[6-({5-chloro-2-[4-({2-[2-(2,6-dioxopiperidin-3-yl)-4-methoxy-1-oxo-2,3-dihydro-1H-isoindol-5-yl]-1,1-dimethyl-2,7-diazaspiro [3.5]nonan-7-yl}methyl)piperidin-1-yl]pyrimidin-4-yl}amino)-2-oxo-1-(propan-2-yl)-1,2-dihydroquinolin-3-yl]oxy}-N-methylacetamide] |  | 10 to 50 nM
 |  | CNC(=O)COc1cc2cc(Nc3nc(N4CCC(O[C@H]5C[C@H](N6CC7(CCN7c7cccc8c7CN(C7CCC(=O)NC7=O)C8=O)C6)C5)CC4)ncc3Cl)ccc2n(C(C)C)c1=O (some centres unmarked) [Compound 317, 2-({6-[(5-chloro-2-{4-[(1r,3r)-3-{1-[2-(2,6-dioxopiperidin-3-yl)-1-oxo-2,3-dihydro-1H-isoindol-4-yl]-1,6-diazaspiro[3.3]heptan-6-yl}cyclobutoxy]piperidin-1-yl}pyrimidin-4-yl)amino]-2-oxo-1-(propan-2-yl)-1,2-dihydroquinolin-3-yl}oxy)-N-methylacetamide] | 50 to 70% | < 10 nM

Compound | DC50 [1] | Dmax [1] | Dmax (T47D) | DC50
CNC(=O)COc1cc2cc(Nc3nc(N4CCC(O[C@H]5C[C@H](N6CCC(c7cc8c(c(OC)c7)C(=O)N(C7CCC(=O)NC7=O)C8)CC6)C5)CC4)ncc3Cl)ccc2n(C(C)C)c1=O (some centres unmarked) [Compound 103, 2-({6-[(5-chloro-2-{4-[(1r,3r)-3-{4-[2-(2,6-dioxopiperidin-3-yl)-7-methoxy-1-oxo-2,3-dihydro-1H-isoindol-5-yl]piperidin-1-yl}cyclobutoxy]piperidin-1-yl}pyrimidin-4-yl)amino]-2-oxo-1-(propan-2-yl)-1,2-dihydroquinolin-3-yl}oxy)-N-methylacetamide] | < 10 nM | 50 to 70% |  | 
CNC(=O)COc1cc2cc(Nc3nc(N4CCC(O[C@H]5C[C@H](N6CCC(c7cc(F)c8c(c7OC)CN(C7CCC(=O)NC7=O)C8=O)CC6)C5)CC4)ncc3Cl)ccc2n(C(C)C)c1=O (some centres unmarked) [Compound 128, 2-({6-[(5-chloro-2-{4-[(1r,3r)-3-{4-[2-(2,6-dioxopiperidin-3-yl)-7-fluoro-4-methoxy-1-oxo-2,3-dihydro-1H-isoindol-5-yl]piperidin-1-yl}cyclobutoxy]piperidin-1-yl}pyrimidin-4-yl)amino]-2-oxo-1-(propan-2-yl)-1,2-dihydroquinolin-3-yl}oxy)-N-methylacetamide] | < 10 nM | 50 to 70% |  | 
CNC(=O)COc1cc2cc(Nc3nc(N4CCC(O[C@H]5C[C@H](N6CC[C@@H](c7ccc8c(c7F)CN([C@H]7CCC(=O)NC7=O)C8=O)C(C)(C)C6)C5)CC4)ncc3Cl)ccc2n(C(C)C)c1=O [Compound 209, 2-({6-[(5-chloro-2-{4-[(1r,3r)-3-[(4R)-4-{2-[(3S)-2,6-dioxopiperidin-3-yl]-4-fluoro-1-oxo-2,3-dihydro-1H-isoindol-5-yl}-3,3-dimethylpiperidin-1-yl]cyclobutoxy]piperidin-1-yl}pyrimidin-4-yl)amino]-2-oxo-1-(propan-2-yl)-1,2-dihydroquinolin-3-yl}oxy)-N-methylacetamide] | < 10 nM | ≥ 70% |  | 
